Usually Ki stands for a measure of affinity in units of concentration, obtained from inhibition or displacement.

Results on one compound are retold here after patent publication US20100222365A1, “SUBSTITUTED TRIAZOLE DERIVIATIVES AS OXYTOCIN ANTAGONISTS” (Pfizer Inc, priority 2005, published 2010).

In the experiment the target is T1, Oxytocin receptor (CHO-OTR/NFAT-β-Lactamase cells) (Homo sapiens, UniProt P30559).
T1 construct: expressed in transfected cells; host or cells: CHO-OTR cell line, further transfected with the NFAT-β-lactamase reporter construct
T1 sequence (P30559 1-389): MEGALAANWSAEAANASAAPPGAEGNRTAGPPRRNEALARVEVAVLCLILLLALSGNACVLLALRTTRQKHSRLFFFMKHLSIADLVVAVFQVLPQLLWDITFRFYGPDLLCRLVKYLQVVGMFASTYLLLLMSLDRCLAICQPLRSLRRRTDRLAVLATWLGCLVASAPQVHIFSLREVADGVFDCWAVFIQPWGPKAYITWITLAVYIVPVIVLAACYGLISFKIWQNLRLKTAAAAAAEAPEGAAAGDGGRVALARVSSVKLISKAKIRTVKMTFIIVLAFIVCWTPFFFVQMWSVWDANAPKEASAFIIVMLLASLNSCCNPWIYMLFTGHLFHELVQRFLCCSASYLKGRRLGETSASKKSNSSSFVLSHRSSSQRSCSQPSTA
As to the kind of experiment: Oxytocin Receptor Beta-lactamase Assay. The format is cell-based. Conditions: oxytocin stimulation 4 hours, read-out: Oxytocin antagonist activity, expressed as a Ki value. How it is done: A suitable assay for determining the Oxytocin antagonist activity of a compound is detailed herein below.
Oxytocin Receptor Beta-lactamase Assay:
Cell Culture: Cells used are CHO-OTR/NFAT-β-Lactamase. The NFAT-β-lactamase expression construct was transfected into the CHO-OTR cell line and clonal populations were isolated via fluorescence activated cell sorting (FAGS). An appropriate clone was selected to develop the assay.
Culturing cells—CHO-OTR-NFAT-βLactamase cells were grown in growth medium. Cells were harvested when they reached 80-90% confluence removing the medium and washing with pre-warmed PBS. […]
Cells grown at 80-90% confluence were harvested and counted. […]
Preparation of 1 ml of 6× Loading Buffer with Enhanced Loading Protocol (this requires scale-up according to number of plates to be screened) • 12 μl of solution A (1 mM CCF4-AM in Dry DMSO) was added to […] of solution B (100 mg/ml Pluronic-F127 in DMSO+0.1% Acetic Acid) and vortexed. • The resulting solution was added to 925 μl of solution C (24% w/w PEG400, 18% TR40 v/v in water). • 75 μl of solution D was added (200 mM probenecid in 200 mM NaOH). • 10 μl of 6× Loading Buffer was added to all wells and incubated for 1.5 hrs-2 hrs at room temperature in the dark. • The plates were read using an UL Analyst, Excitation 405 nm, Emission 450 nm and 530 nm, gain optimal, lagtime 0.40 μs integration, 4 flashes, bottom reading.

In the case of `COc1ccc(-n2c(C)nnc2-c2cnc(Oc3cccc(C)c3C)cn2)cn1` [Example 6], the Ki amounted to 5.5 nM.
